Patent US9187472B2 (AbbVie Inc., priority 2012, dated 2015)

Key:
[1] = target: NAMPT (human, recombinant, C-terminally His-tagged) (Homo sapiens, UniProt P43490); assay: Time-Resolved Fluorescence Resonance Energy Transfer (TR-FRET) Binding Assay of NAMPT; conditions: without substrates; 6.8 nM NAMPT, 200 nM probe, 3 hours equilibration
How it was run: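 Read-out is the time-resolved FRET ratio Em520/Em495 (excitation 337 nm) between a terbium anti-His antibody (1 nM) on the enzyme and an Oregon Green 488-labelled nicotinamide-competitive inhibitor probe (200 nM). Enzyme was 6.8 nM, DMSO 2%, pH 7.5 HEPES buffer; 3 h room-temperature equilibration preceded reading.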

[2] = target: NAMPT (Homo sapiens, UniProt P43490); assay: TR-FRET Binding Assay of NAMPT with PRPP; conditions: with 200 μM PRPP and 2.5 mM ATP; 2 nM NAMPT, 2 nM probe, 16 hours equilibration
NAMPT, sequence (P43490 whole entry): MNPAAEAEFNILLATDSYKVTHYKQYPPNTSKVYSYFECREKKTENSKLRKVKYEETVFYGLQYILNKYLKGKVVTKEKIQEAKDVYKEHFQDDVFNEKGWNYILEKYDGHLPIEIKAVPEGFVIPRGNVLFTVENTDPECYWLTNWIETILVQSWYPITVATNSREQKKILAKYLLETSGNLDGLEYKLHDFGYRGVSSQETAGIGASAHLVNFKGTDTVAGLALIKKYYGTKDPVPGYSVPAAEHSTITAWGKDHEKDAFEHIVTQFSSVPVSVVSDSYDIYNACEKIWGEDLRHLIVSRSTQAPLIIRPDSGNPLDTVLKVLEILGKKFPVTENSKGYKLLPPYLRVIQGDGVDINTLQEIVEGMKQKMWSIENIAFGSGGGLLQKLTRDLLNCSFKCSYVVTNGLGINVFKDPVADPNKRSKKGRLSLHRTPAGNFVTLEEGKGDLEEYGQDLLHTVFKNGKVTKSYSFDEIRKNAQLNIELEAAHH
How it was run: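 NAMPT 2 nM + probe 2 nM + Tb-anti-His Ab 1 nM; PRPP 200 μM, ATP 2.5 mM, DMSO 2%; 16 h equilibration before TR-FRET read.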

[3] = tested on: PC3 cells; assay: NAMPT Cell Proliferation Assay; assay type: cell-based; conditions: Homo sapiens, PC-3, 120 h, 5 days incubation, cell viability by Cell Titer Glo
How it was run: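 Following overnight attachment in RPMI with 10% heat-inactivated FBS, PC3 cells at 500 per well receive compounds spanning 10 μM down to 1×10^−5 μM. Growth is assessed by luminescent viability read after 5 days.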

NAMPT (human, recombinant, C-terminally His-tagged), sequence (P43490 whole entry): as above

IC50 [1] [nM]	IC50 [2] [nM]	IC50 [3] [nM]	Structure (SMILES)
211	0.71	17.5	O=C(NCc1ccn2ccnc2c1)c1ccc(C2CCN(S(=O)(=O)c3ccccc3)C2)cc1 (stereo not drawn) [Example 627, N-(imidazo[1,2-a]pyridin-7-ylmethyl)-4-[1-(phenylsulfonyl)pyrrolidin-3-yl]benzamide]
214	0.733	71.5	O=C(NCc1ccn2ccnc2c1)c1ccc(C2CN(C(=O)c3nccs3)C2)cc1 [Example 664, N-(imidazo[1,2-a]pyridin-7-ylmethyl)-4-[1-(1,3-thiazol-2-ylcarbonyl)azetidin-3-yl]benzamide]
1140	0.505	347	O=C(NCc1ccn2ccnc2c1)c1ccc(C2(O)CN(C(=O)CC3CCOCC3)C2)s1 [Example 406, 5-[3-hydroxy-1-(tetrahydro-2H-pyran-4-ylacetyl)azetidin-3-yl]-N-(imidazo[1,2-a]pyridin-7-ylmethyl)thiophene-2-carboxamide]
138	0.761	19.3	O=C(NCc1ccn2ccnc2c1)c1ccc(C2CCN(C(=O)c3cccc(F)c3)C2)cc1 (stereo not drawn) [Example 591, 4-[1-(3-fluorobenzoyl)pyrrolidin-3-yl]-N-(imidazo[1,2-a]pyridin-7-ylmethyl)benzamide]
39.4	1.01	3.88	O=C(NCc1ccn2ccnc2c1)Nc1ccc(C2CCN(C(=O)c3ccc(F)cc3F)CC2)cc1 [Example 722, 1-{4-[1-(2,4-difluorobenzoyl)piperidin-4-yl]phenyl}-3-(imidazo[1,2-a]pyridin-7-ylmethyl)urea]
265	0.64	67.2	CC1(C(=O)N2CCC(c3ccc(C(=O)NCc4ccn5ccnc5c4)s3)C2)COC1 (stereo not drawn) [Example 767, N-(imidazo[1,2-a]pyridin-7-ylmethyl)-5-{1-[(3-methyloxetan-3-yl)carbonyl]pyrrolidin-3-yl}thiophene-2-carboxamide]

The remaining lines, values behind:

Structure (SMILES)	IC50 [1] [nM]	IC50 [2] [nM]	IC50 [3] [nM]
O=C(Nc1ccc(C(=O)NCCCN2CCCC2=O)cc1)Nc1ccc2nccn2c1 [Example 21, 4-[(imidazo[1,2-a]pyridin-6-ylcarbamoyl)amino]-N-[3-(2-oxopyrrolidin-1-yl)propyl]benzamide]	433	0.887	899
O=C(NCCCCC1CCN(C(=O)c2ccccc2)CC1)Nc1ccc2nccn2c1 [Example 107, 1-[4-(1-benzoylpiperidin-4-yl)butyl]-3-imidazo[1,2-a]pyridin-6-ylurea]	45.1	0.492	10.8
CC(C)(C)OC(=O)N1CC(c2ccc(NC(=O)NCc3ccn4ccnc4c3)cc2)C1 [Example 364, tert-butyl 3-(4-{[(imidazo[1,2-a]pyridin-7-ylmethyl)carbamoyl]amino}phenyl)azetidine-1-carboxylate]	135	0.172	31
CC(C)CCNC(=O)c1ccc(NC(=O)Nc2ccc3nccn3c2)cc1 [Example 1, 4-[(imidazo[1,2-a]pyridin-6-ylcarbamoyl)amino]-N-(3-methylbutyl)benzamide]	92.1	0.72	60.9
CC(C)(C)OC(=O)N1CC=C(c2ccc(CC(=O)Nc3ccc4nccn4c3)cc2)CC1 [Example 314, tert-butyl 4-{4-[2-(imidazo[1,2-a]pyridin-6-ylamino)-2-oxoethyl]phenyl}-3,6-dihydropyridine-1(2H)-carboxylate]	1980	0.581	395
O=C(NCc1ccn2ccnc2c1)Nc1ccc(O[C@@H]2CCN(C(=O)CC3CCOCC3)C2)cc1 [Example 338, 1-(imidazo[1,2-a]pyridin-7-ylmethyl)-3-(4-{[(3R)-1-(tetrahydro-2H-pyran-4-ylacetyl)pyrrolidin-3-yl]oxy}phenyl)urea]	609	0.394	81
